Source: patent US8673578B2, “Methods of identifying antagonists of the hTAS2R46 bitter taste receptor” (Deutsches Institut für Ernahrungsforschung Potsdam-Rehbrücke, priority 2009, dated 2014)

Columns and labels:
Assay in all cases: calcium imaging (FLIPR), effect on agonist-dependent hTAS2R activation
Type in all cases: cell-based
hTAS2R46 = target: T1, hTAS2R46 (Homo sapiens, UniProt P59540); conditions: for agonist-dependent response of hTAS2R46-expressing cells on coapplication: 100 μM test substance, agonist picrotoxinin 300 μM (EC90), agonist alone = 100%
T1 construct: expressed in transfected cells; host or cells: HEK293T cells stably expressing chimeric Gα16gust44, transient transfection
T1 sequence (P59540 1-309): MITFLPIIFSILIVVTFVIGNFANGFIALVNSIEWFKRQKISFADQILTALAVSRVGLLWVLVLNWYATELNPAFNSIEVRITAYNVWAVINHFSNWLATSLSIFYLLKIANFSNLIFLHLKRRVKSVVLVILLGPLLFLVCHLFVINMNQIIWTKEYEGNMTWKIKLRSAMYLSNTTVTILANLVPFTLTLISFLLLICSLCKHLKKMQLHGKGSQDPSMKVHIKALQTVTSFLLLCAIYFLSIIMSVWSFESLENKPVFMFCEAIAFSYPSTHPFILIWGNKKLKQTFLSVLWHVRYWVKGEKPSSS
From the text: (§1) Human TAS2R cDNAs were cloned into pcDNA5/FRT (Invitrogen, San Diego, Calif.). For adequate plasma membrane targeting, receptor cDNA was fused to the aminoterminal sequence of the rat somatostatin type 3 receptor at the aminoterminus of the recombinant protein (Bufe, B., T. Hofmann, et al. (2002) Nat Genet. 32(3): 397-401). For immunological detection, the Herpes simplex Glycoprotein D epitope was supplemented at the carboxyterminus of the recombinant protein (Bufe et al., supra). Receptor constructs were transiently transfected into HEK293T cells stably expressing the chimeric G protein subunit Gα16gust44 (Ueda, T., S. Ugawa, et al. (2003) J Neurosci 23(19): 7376-80) using Lipofectamine 2000 (Invitrogen, San Diego, Calif.) in 96-well plates.
(§2) Calcium Imaging experiments were performed 24 h after transfection using a Fluorometric Imaging Plate Reader (FLIPR, Molecular Devices, Munich, Germany) as previously described (Bufe et al., supra). Taste active compounds were ordered from Sigma (Sigma-Aldrich, Taufkirchen, Germany). Absinthin, 3β hydroxy dihydro costunolide and 3β hydroxy pelenolide were kindly provided by Giovanni Appendino (Novara, Italy). Test substances were directly dissolved in C1 buffer (130 mM NaCl, 10 mM Na-Hepes, 10 mM Glucose, 5 mM KCl, 2 mM CaCl2, pH 7.4) or in DMSO, respectively. DMSO stocks were further diluted in C1 buffer not exceeding a final DMSO concentration of 1% on the cells. For the investigation of antagonistic effects, test substances were premixed. Agonists were applied at concentrations corresponding to EC90, except where indicated otherwise (Table 2). Data were collected from 3 independent experiments performed in quadruplicates and processed with SigmaPlot (SPSS, Chicago, Ill.). Fluorescence signals after application of test substances were corrected for and normalized to background fluorescence (ΔF/F═(F−F0)/F0), and baseline noise was subtracted. Calculation of dose-response curves was done by nonlinear regression using the function f(y)=((a−d)/(1+(x/EC50)^nH)+d).
(§3) To test 3β hydroxy dihydro costunolide and 3β hydroxy pelenolide for antagonistic or enhancing effects on hTAS2R activation, transfected cells were stimulated with cognate agonist bitter substances at EC90 concentrations (Table 2) without 3β hydroxy dihydro costunolide and 3β hydroxy pelenolide. The cellular responses after application of the agonist alone were set to 100%, responses obtained after coapplication of agonists and 100 μM 3β hydroxy dihydro costunolide or 100 μM 3β hydroxy pelenolide are shown relative to this value (FIG. 4).
Next we determined concentrations of half-maximal inhibition of TAS2R46. FIG. 5 illustrates the concentration-inhibition curves of TAS2R46 activated by picrotoxinin in the presence of various concentrations of 3β hydroxy dihydro costunolide or 3β hydroxy pelenolide. […] In agreement with the data described above the costunolide analog appears to be more potently inhibiting TAS2R46 than the pelenolide analog. […] As expected 3β hydroxy pelenolide has to be employed at ˜6 fold higher concentrations than 3β hydroxy dihydro costunolide to achieve 50% receptor inhibition.
Next, we established concentration-response curves for strychnine at TAS2R46 in the presence of various concentrations of 3β hydroxy dihydro costunolide.
Finally, the impact of chemical modifications on the antagonistic properties of 3β hydroxy dihydro costunolide on hTAS2R46-expressing cells was studied. Derivatives of 3β hydroxy dihydro costunolide with site-directed modifications at C3 and C11 were generated (FIG. 7A) These derivatives were tested for activation or inhibition of hTAS2R46-expressing cells in the absence or presence of the agonist strychnine (3 μM) and half-maximum effective concentrations (EC50) or half-maximal inhibitory concentrations were calculated (FIG. 7B).

hTAS2R47 = target: T2, hTAS2R47 (Homo sapiens, UniProt P59541); conditions: 100 μM test substance; agonist brucine 100 μM (EC90); agonist alone = 100%
T2 construct: expressed in transfected cells; host or cells: HEK293T cells stably expressing chimeric Gα16gust44, transient transfection
T2 sequence (P59541 1-319): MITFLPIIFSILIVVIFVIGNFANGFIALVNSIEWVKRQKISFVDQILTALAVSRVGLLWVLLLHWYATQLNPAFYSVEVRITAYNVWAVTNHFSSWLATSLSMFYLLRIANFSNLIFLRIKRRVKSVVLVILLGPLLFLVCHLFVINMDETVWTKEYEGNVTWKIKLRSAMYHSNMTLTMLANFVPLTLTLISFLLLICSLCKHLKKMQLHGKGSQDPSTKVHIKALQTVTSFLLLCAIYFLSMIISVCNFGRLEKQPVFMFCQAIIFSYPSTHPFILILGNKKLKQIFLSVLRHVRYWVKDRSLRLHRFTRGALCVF
From the text: as §1, §2, §3

hTAS2R40 = target: T3, hTAS2R40 (Homo sapiens, UniProt P59535); conditions: 100 μM test substance; agonist cohumulone 0.3 μM (EC90); agonist alone = 100%
T3 construct: expressed in transfected cells; host or cells: HEK293T cells stably expressing chimeric Gα16gust44, transient transfection
T3 sequence (P59535 whole entry): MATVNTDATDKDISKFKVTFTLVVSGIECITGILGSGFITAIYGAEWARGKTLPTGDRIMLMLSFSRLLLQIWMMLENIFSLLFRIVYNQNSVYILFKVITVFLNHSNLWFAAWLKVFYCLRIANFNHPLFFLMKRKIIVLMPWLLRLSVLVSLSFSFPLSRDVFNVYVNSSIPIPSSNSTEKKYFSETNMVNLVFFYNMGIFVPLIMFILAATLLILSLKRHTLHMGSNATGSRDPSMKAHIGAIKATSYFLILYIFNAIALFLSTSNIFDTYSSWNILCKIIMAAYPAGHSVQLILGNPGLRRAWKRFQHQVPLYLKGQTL
From the text: as §1, §2, §3

hTAS2R43 = target: T4, hTAS2R43 (Homo sapiens, UniProt P59537, H212R/W35S); conditions: 100 μM test substance; agonist aristolochic acids 0.3 μM (EC90); agonist alone = 100%
T4 construct: expressed in transfected cells; host or cells: HEK293T cells stably expressing chimeric Gα16gust44, transient transfection
T4 sequence (P59537 1-309 W35S/H212R): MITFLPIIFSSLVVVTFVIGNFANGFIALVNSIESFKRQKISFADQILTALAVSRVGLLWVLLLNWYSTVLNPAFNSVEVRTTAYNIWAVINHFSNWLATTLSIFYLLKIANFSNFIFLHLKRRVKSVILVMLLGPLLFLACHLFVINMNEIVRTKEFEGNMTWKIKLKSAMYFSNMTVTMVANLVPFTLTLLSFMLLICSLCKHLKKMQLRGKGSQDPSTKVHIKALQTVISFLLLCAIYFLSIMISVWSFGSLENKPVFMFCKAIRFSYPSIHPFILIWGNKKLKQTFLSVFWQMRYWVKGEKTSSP
From the text: as §1, §2, §3

[1] = agonist denatonium benzoate 300 μM

Compound	strychnine response amplitude at TAS2R46 with increasing inhibitor concentrations (hTAS2R46; 0, 10, 30, 100 μM inhibitor)	change of the strychnine EC50 value at hTAS2R46 on coapplication (hTAS2R46; 100 μM inhibitor, P<0.05, one-way ANOVA)	agonist-dependent response of hTAS2R46-expressing cells on coapplication (hTAS2R46)	IC50 (hTAS2R46; agonist absinthin 100 μM) [µM]	IC50 (hTAS2R46; agonist andrographolide 30 μM) [µM]	IC50 (hTAS2R46; [1]) [µM]	IC50 (hTAS2R46; agonist picrotoxinin 300 μM) [µM]	IC50 (hTAS2R46; agonist strychnine 3 μM) [µM]	action on hTAS2R46-expressing cells (inhibition) (hTAS2R46; presence of agonist strychnine 3 μM)	mode of action of the inhibitor at TAS2R46 (hTAS2R46; strychnine concentration-response curves with 0, 10, 30, 100 μM inhibitor)	agonist-dependent response of hTAS2R47-expressing cells on coapplication (hTAS2R47)	agonist-dependent response of hTAS2R40-expressing cells on coapplication (hTAS2R40)	agonist-dependent response of hTAS2R43-expressing cells on coapplication (hTAS2R43)	fold higher concentration than 3β hydroxy dihydro costunolide to achieve 50% receptor inhibition (hTAS2R46; TAS2R46) [fold]
C/C1=C\C[C@H](O)/C(C)=C/[C@H]2OC(=O)[C@@H](C)C2CC1 (stereo partly drawn) [3β hydroxy dihydro costunolide]	largely unaffected	significant increase	complete block	14.1 ± 1.35	4.93 ± 0.54	6.78 ± 2.33	4.81 ± 1.43	15.3 ± 5.85	antagonists	competitive	complete block	only moderately reduced	only moderately reduced	
C/C1=C\C[C@H](O)[C@@H](C)C[C@H]2OC(=O)[C@@H](C)[C@@H]2CC1 [3β hydroxy pelenolide]			moderately attenuating effect	57.8 ± 24.9	44.5 ± 34.5	51.4 ± 28.8	22.9 ± 3.4	84.9 ± 50.2			completely inhibited	moderately attenuating effect	completely inhibited	~6
